This series can be described thus: Chemical stability. The class given is physicochemical.

In the case of `CC(CCC(=O)C(C)(C)OS(=O)(=O)O)[C@H]1CCC2C3C(CC[C@@]21C)[C@@]1(C)CC[C@H](NCCCNCCCCN)C[C@@H]1C[C@H]3O` (stereo partly shown) [FX1A], the stability in water result is “undergo conversion to another molecule (FX 1B) rapidly in water”.
